Reference: PubChem BioAssay (NCI)
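1) Cells in 96-well plates. 2) Compound, 48 h, 5 concentrations. 3) Linear interpolation between surrounding doses. 4) Unreached endpoint = highest concentration. TGI: concentration producing complete growth inhibition.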

Legend:
Assay in all cases: NCI tumour cell line growth inhibition, 48 h
NCI-H460 lung = test system: NCI-H460 lung
UACC-257 melanoma = test system: UACC-257 melanoma
OVCAR-5 ovarian = test system: OVCAR-5 ovarian
SNB-75 CNS = test system: SNB-75 CNS
OVCAR-8 ovarian = test system: OVCAR-8 ovarian
NCI-H522 lung = test system: NCI-H522 lung
HCT-116 colon = test system: HCT-116 colon
LOX IMVI melanoma = test system: LOX IMVI melanoma
SN12C renal = test system: SN12C renal
UACC-62 melanoma = test system: UACC-62 melanoma
SNB-78 CNS = test system: SNB-78 CNS
LXFL 529 NSCLC = test system: LXFL 529 NSCLC
A549 NSCLC = test system: A549 NSCLC
KM20L2 colon = test system: KM20L2 colon
CAKI-1 renal = test system: CAKI-1 renal
OVCAR-4 ovarian = test system: OVCAR-4 ovarian
HOP-18 NSCLC = test system: HOP-18 NSCLC
TK-10 renal = test system: TK-10 renal
SR leukemia = test system: SR leukemia
CCRF-CEM leukemia = test system: CCRF-CEM leukemia
OVCAR-3 ovarian = test system: OVCAR-3 ovarian
SF-268 CNS = test system: SF-268 CNS
SNB-19 CNS = test system: SNB-19 CNS
HL-60(TB) leukemia = test system: HL-60(TB) leukemia
SW-620 colon = test system: SW-620 colon
XF 498 CNS = test system: XF 498 CNS
K-562 leukemia = test system: K-562 leukemia
NCI-H23 lung = test system: NCI-H23 lung
HCT-15 colon = test system: HCT-15 colon
A498 renal = test system: A498 renal
COLO 205 colon = test system: COLO 205 colon
HOP-62 NSCLC = test system: HOP-62 NSCLC
DMS 273 small cell lung = test system: DMS 273 small cell lung
RPMI-8226 leukemia = test system: RPMI-8226 leukemia
HCC-2998 colon = test system: HCC-2998 colon
RXF-631 renal = test system: RXF-631 renal
SF-295 CNS = test system: SF-295 CNS
IGROV1 ovarian = test system: IGROV1 ovarian
DLD-1 colon = test system: DLD-1 colon
786-0 renal = test system: 786-0 renal
EKVX NSCLC = test system: EKVX NSCLC
MOLT-4 leukemia = test system: MOLT-4 leukemia
ACHN renal = test system: ACHN renal
MALME-3M melanoma = test system: MALME-3M melanoma
HOP-92 NSCLC = test system: HOP-92 NSCLC
SK-OV-3 ovarian = test system: SK-OV-3 ovarian
RXF 393 renal = test system: RXF 393 renal
UO-31 renal = test system: UO-31 renal
KM12 colon = test system: KM12 colon
NCI-H226 lung = test system: NCI-H226 lung
HT29 colon = test system: HT29 colon
M14 melanoma = test system: M14 melanoma
M19-MEL melanoma = test system: M19-MEL melanoma
DMS 114 small cell lung = test system: DMS 114 small cell lung
U251 CNS = test system: U251 CNS
SK-MEL-28 melanoma = test system: SK-MEL-28 melanoma
SK-MEL-5 melanoma = test system: SK-MEL-5 melanoma
SK-MEL-2 melanoma = test system: SK-MEL-2 melanoma
SF-539 CNS = test system: SF-539 CNS

With `COC(=O)C(=O)C(C(=O)C(=O)Nc1ccc([N+](=O)[O-])cc1[N+](=O)[O-])c1nc2ccc([N+](=O)[O-])cc2[nH]c1=O` (stereo not drawn) the TGI (NCI-H460 lung) was > 100 µM, the TGI (UACC-257 melanoma) was > 100 µM and the TGI (OVCAR-5 ovarian) was > 100 µM. The TGI (SNB-75 CNS) was 84.9 µM, the TGI (OVCAR-8 ovarian) was > 100 µM and the TGI (NCI-H522 lung) was > 100 µM. For the same molecule, the TGI (HCT-116 colon) was > 100 µM, the TGI (LOX IMVI melanoma) was > 100 µM and the TGI (SN12C renal) was > 100 µM. For the same molecule, the TGI (UACC-62 melanoma) was > 100 µM, the TGI (SNB-78 CNS) was > 100 µM and the TGI (LXFL 529 NSCLC) was > 100 µM. For the same molecule, the TGI (A549 NSCLC) was > 100 µM, the TGI (KM20L2 colon) was > 100 µM and the TGI (CAKI-1 renal) was > 100 µM. The TGI (OVCAR-4 ovarian) was > 100 µM, the TGI (HOP-18 NSCLC) was > 100 µM and the TGI (TK-10 renal) was > 100 µM. The TGI (SR leukemia) was > 100 µM, the TGI (CCRF-CEM leukemia) was > 100 µM and the TGI (OVCAR-3 ovarian) was > 100 µM. The TGI (SF-268 CNS) was > 100 µM, the TGI (SNB-19 CNS) was > 100 µM and the TGI (HL-60(TB) leukemia) was > 100 µM. The TGI (SW-620 colon) was > 100 µM, the TGI (XF 498 CNS) was > 100 µM and the TGI (K-562 leukemia) was > 100 µM. The TGI (NCI-H23 lung) was > 100 µM, the TGI (HCT-15 colon) was > 100 µM and the TGI (A498 renal) was > 100 µM. For the same molecule, the TGI (COLO 205 colon) was > 100 µM, the TGI (HOP-62 NSCLC) was > 100 µM and the TGI (DMS 273 small cell lung) was > 100 µM. For the same molecule, the TGI (RPMI-8226 leukemia) was > 100 µM, the TGI (HCC-2998 colon) was > 100 µM and the TGI (RXF-631 renal) was > 100 µM. For the same molecule, the TGI (SF-295 CNS) was > 100 µM, the TGI (IGROV1 ovarian) was > 100 µM and the TGI (DLD-1 colon) was > 100 µM. The TGI (786-0 renal) was > 100 µM, the TGI (EKVX NSCLC) was > 100 µM and the TGI (MOLT-4 leukemia) was > 100 µM. For the same molecule, the TGI (ACHN renal) was > 100 µM, the TGI (MALME-3M melanoma) was > 100 µM and the TGI (HOP-92 NSCLC) was > 100 µM. For the same molecule, the TGI (SK-OV-3 ovarian) was > 100 µM, the TGI (RXF 393 renal) was > 100 µM and the TGI (UO-31 renal) was > 100 µM. For the same molecule, the TGI (KM12 colon) was > 100 µM, the TGI (NCI-H226 lung) was > 100 µM and the TGI (HT29 colon) was > 100 µM. For the same molecule, the TGI (M14 melanoma) was > 100 µM, the TGI (M19-MEL melanoma) was > 100 µM and the TGI (DMS 114 small cell lung) was > 100 µM. The TGI (U251 CNS) was > 100 µM.
In the case of `Cc1ccc(C)c(NC(=O)CC2C(=O)Nc3ccccc3S2(=O)=O)c1` (stereo not drawn), the TGI (NCI-H460 lung) is reported as > 100 µM, the TGI (UACC-257 melanoma) is reported as > 100 µM and the TGI (OVCAR-5 ovarian) is reported as > 100 µM. For the same molecule, the TGI (SNB-75 CNS) was 45.7 µM, the TGI (OVCAR-8 ovarian) was > 100 µM and the TGI (HCT-116 colon) was > 100 µM. For the same molecule, the TGI (LOX IMVI melanoma) was > 100 µM, the TGI (SN12C renal) was > 100 µM and the TGI (UACC-62 melanoma) was > 100 µM. The TGI (SNB-78 CNS) was > 100 µM, the TGI (LXFL 529 NSCLC) was > 100 µM and the TGI (A549 NSCLC) was > 100 µM. For the same molecule, the TGI (KM20L2 colon) was > 100 µM, the TGI (CAKI-1 renal) was > 100 µM and the TGI (OVCAR-4 ovarian) was 38.7 µM. For the same molecule, the TGI (TK-10 renal) was > 100 µM, the TGI (SR leukemia) was > 100 µM and the TGI (CCRF-CEM leukemia) was > 100 µM. The TGI (OVCAR-3 ovarian) was > 100 µM, the TGI (SF-268 CNS) was > 100 µM and the TGI (SNB-19 CNS) was > 100 µM. For the same molecule, the TGI (HL-60(TB) leukemia) was > 100 µM, the TGI (SW-620 colon) was > 100 µM and the TGI (XF 498 CNS) was 61.6 µM. The TGI (K-562 leukemia) was > 100 µM, the TGI (NCI-H23 lung) was > 100 µM and the TGI (HCT-15 colon) was > 100 µM. The TGI (A498 renal) was > 100 µM, the TGI (DMS 273 small cell lung) was > 100 µM and the TGI (RPMI-8226 leukemia) was > 100 µM. For the same molecule, the TGI (HCC-2998 colon) was > 100 µM, the TGI (RXF-631 renal) was > 100 µM and the TGI (SF-295 CNS) was > 100 µM. The TGI (IGROV1 ovarian) was > 100 µM, the TGI (DLD-1 colon) was > 100 µM and the TGI (786-0 renal) was 56.5 µM. For the same molecule, the TGI (EKVX NSCLC) was > 100 µM, the TGI (MOLT-4 leukemia) was > 100 µM and the TGI (ACHN renal) was > 100 µM. For the same molecule, the TGI (MALME-3M melanoma) was 96.2 µM, the TGI (HOP-92 NSCLC) was > 100 µM and the TGI (RXF 393 renal) was 49.6 µM. For the same molecule, the TGI (SK-MEL-28 melanoma) was > 100 µM, the TGI (SK-MEL-5 melanoma) was > 100 µM and the TGI (UO-31 renal) was > 100 µM. For the same molecule, the TGI (SK-MEL-2 melanoma) was > 100 µM, the TGI (NCI-H226 lung) was > 100 µM and the TGI (HT29 colon) was > 100 µM. For the same molecule, the TGI (M14 melanoma) was > 100 µM, the TGI (M19-MEL melanoma) was > 100 µM and the TGI (SF-539 CNS) was 82.5 µM. For the same molecule, the TGI (DMS 114 small cell lung) was > 100 µM and the TGI (U251 CNS) was > 100 µM.
